In patent US20130310440A1, “METHOD FOR TREATING NON-SMALL CELL LUNG CANCER” (TEVA PHARMACEUTICAL INDUSTRIES LTD., priority 2012, published 2013):
Like-named read-outs stand apart in the source and are kept apart here. In the oligonucleotide strings, read from the 5' end, every base follows the letter of its sugar. An asterisk marks phosphorothioate; unmarked linkages are phosphodiester. Other units and linkages are bracketed, terminal groups are in braces. A string of capitals states the bases alone. e = 2'-O-(2-methoxyethyl) (MOE); [5mC] = 5-methylcytosine; d = 2'-deoxy (DNA)

How the values were obtained:
NSCLC = settings: patients treated with docetaxel in the 2nd line setting; cited from earlier work
CYP3A4 = CYP3A4 (Homo sapiens, UniProt P08684); settings: cited from earlier work
CYP3A4, sequence (P08684 whole entry): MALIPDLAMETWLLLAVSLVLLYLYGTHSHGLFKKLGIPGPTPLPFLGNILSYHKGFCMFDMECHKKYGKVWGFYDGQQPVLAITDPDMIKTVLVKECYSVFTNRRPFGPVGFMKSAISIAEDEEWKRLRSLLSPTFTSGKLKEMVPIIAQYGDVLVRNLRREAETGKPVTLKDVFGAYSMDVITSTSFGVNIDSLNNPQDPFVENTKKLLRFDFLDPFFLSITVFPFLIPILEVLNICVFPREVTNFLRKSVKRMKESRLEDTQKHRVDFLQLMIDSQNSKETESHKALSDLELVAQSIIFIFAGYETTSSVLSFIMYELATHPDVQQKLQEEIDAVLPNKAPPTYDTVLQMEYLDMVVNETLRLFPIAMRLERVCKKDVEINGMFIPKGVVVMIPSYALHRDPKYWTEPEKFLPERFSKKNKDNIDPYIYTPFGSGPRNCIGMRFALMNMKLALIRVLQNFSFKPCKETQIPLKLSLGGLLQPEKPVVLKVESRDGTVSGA

[1] = cited from earlier work
[2] = human, in vivo; cited from earlier work
[3] = system: cancerous human prostate, breast, ovarian, lung, renal, bladder, and melanoma cells; settings: cited from earlier work
stage IIIB or IV NSCLC = assay: Phase 1-2 study of weekly custirsen plus a gemcitabine/platinum-based regimen: survival by serum clusterin; type: in vivo, human; settings: for median survival time: plus gemcitabine/platinum
Method: The relationship between serum clusterin levels and the duration of individual survival was evaluated during a phase 1-2 study of weekly custirsen plus a gemcitabine/platinum-based regimen in patients with stage IIIB or IV NSCLC. Not all of the patients in this study had baseline levels of clusterin measured. However, starting with N=69 subjects with measured baseline clusterin levels, fitting the Cox proportional hazards (PH) model with baseline clusterin as sole predictor gives p=0.10; the coefficient is positive, so that higher clusterin is associated with increased survival risk. Among the N=55 subjects who also had post-baseline data collected, fitting the same PH model gives p=0.05, again with positive coefficient.
A careful search for possible cutpoints, using all N=69 subjects with baseline clusterin levels, produced 71 μg/mL as a strong candidate.
Among all N=69 subjects with a baseline clusterin level, there were […] with clusterin ≦71 μg/mL (median survival time was 18.8 months), and N=26 subjects with baseline clusterin >71 μg/mL (median survival time was 10.2 months); the log-rank p-value=0.004. Removing the N=14 early discontinuers leaves N=35 subjects with baseline clusterin ≦71 μg/mL (median survival time was 28.7 months), and N=20 subjects with baseline clusterin >71 μg/mL (median survival time was 12.2 months); the log-rank p-value=0.0002.
To further assess the relevance of baseline clusterin as a predictor of survival, data from the study were further segregated based on average and minimum clusterin levels achieved during treatment.

[4] = in vivo
Method: Three doses of 640 mg custirsen are administered IV during the Loading Dose Period (Days −9 to −1). There is at least one “non-infusion” day between each administration of custirsen (i.e. every other day) during the Loading Dose Period and between the third loading dose of custirsen and Day 1 of Cycle 1. The day prior to Day 1 of Cycle 1 (Day 0) is a “no treatment” day. There are no more than 4 days between the last loading dose and Day 1 of Cycle 1. A common schedule is to give the three loading doses of custirsen on Monday, Wednesday and Friday with Day 1, Cycle 1 starting on the following Monday. Up to nine days are allowed for completing the three loading doses prior to Day 0 to account for clinic visits, weekends, and holidays. Subjects receive each dose of custirsen as a 2 hour infusion.

clusterin = settings: cited from earlier work
[5] = system: Advanced or Metastatic (Stage IV) Non Small Cell Lung Cancer; assay: Phase III study: custirsen plus docetaxel versus docetaxel, second line (Example 3); type: in vivo, human
Excerpt: A Multinational, Randomized, Open-Label Phase III Study of Custirsen (TV-1011/OGX-011) In Combination With Docetaxel Versus Docetaxel As A Second-Line Treatment In Patients with Advanced or Metastatic (Stage IV) Non Small Cell Lung Cancer.
Patients randomized to the custirsen arm (Arm A) have 3 doses of custirsen administered in a 5 to 9 day Loading Dose Period prior to Day 1 of Cycle 1. Patients in Arm A receive custirsen on Days 1, 8 and 15, and docetaxel on Day 1 of the 21-day cycles. Patients in Arm B receive only docetaxel on Day 1 of the 21-day cycles. Patients randomized to both arms have 21-day chemotherapy cycles until disease progression, unacceptable toxicity, withdrawal of consent or protocol specified parameters to stop treatment.
After a screening period of up to 28 days, patients are randomized 1:1 to receive either docetaxel and custirsen (Arm A) or docetaxel (Arm B). Randomization is stratified by gender (male vs. female), NSCLC histology (squamous vs. non-squamous), best overall response to the first-line platinum-based therapy (SD/CR/PR vs. PD) and ECOG PS (0 vs. 1) to minimize imbalance at randomization. Patients randomized to Arm A receive 3 doses of custirsen administered in a 5 to 9 day Loading Dose Period prior to Day 1 of Cycle 1. Following the Loading Dose period, patients in Arm A receive custirsen on Days 1, 8 and 15, and docetaxel on Day 1 of the 21-day cycle. Patients in Arm B receive only docetaxel on Day 1 of the 21-day cycle. Patients randomized to both study arms have 21-day chemotherapy cycles until disease progression, unacceptable toxicity, withdrawal from study treatment, or protocol specified parameters to stop treatment. Patients who are removed from study treatment for any reason other than disease progression or death are followed for documented radiological disease progression. All patients who discontinued study treatment are followed to collect further anticancer treatment and survival information until death, loss to follow-up, withdrawal of consent, or up to 12 months after the end of treatment visit for the last patient on the study, whichever comes first.
Tumor response to study treatment and disease progression are based on the criteria proposed by the Response Evaluation Criteria in Solid Tumors (RECIST) guideline (version 1.1). All patients undergo CT or MRI scans of the chest and upper abdomen, as well as any other areas clinically indicated, at screening, then every 6 weeks, starting at week 8 after randomization until disease progression. Tumor measurement is also performed during the end of treatment visit if it is not done within the previous 6 weeks. Patients who discontinue study treatment for reasons other than disease progression continue to have tumor measurements per RECIST v1.1 until disease progression, start of new anticancer therapy, withdrawal of consent, lost to follow-up, or death, whichever occurs first. Assessment of these scans is carried out in a blinded fashion, by a Central Imaging Lab designated by the Sponsor.
Adverse events and concomitant medications are collected throughout the study up to 28 days after the last dose of study treatment. Medical history is assessed, documented results of EGFR and KRAS mutation status are collected, if available, and an electrocardiogram is performed at screening. Physical examination, assessment of the ECOG Performance Status, vital signs, and laboratory evaluations are conducted at screening and throughout the study.
The general health status, as reported by the patients, are assessed by the Functional Assessment of Cancer Therapy-Lung (FACT-L) questionnaire.
Study Agent: Three loading doses of custirsen 640 mg IV over 2 hours administered in 5 to 9 days prior to Day 1 of Cycle 1, then custirsen 640 mg IV over 2 hours on Days 1, 8 and 15 of a 21-day cycle.
Chemotherapy: Docetaxel 75 mg/m^2 IV over 1 hour on Day 1 of a 21-day cycle. […]

[6] = system: Stage IV Non-Squamous Non-Small Cell Lung Cancer; assay: Phase III study: paclitaxel/carboplatin with or without custirsen (Examples 1 and 2); type: in vivo, human
Excerpt: Subjects randomized to the custirsen arm first receive three doses of custirsen in a 5 to 9 day loading dose period prior to Day 1 of Cycle 1. Subjects randomized to both study arms have 21-day chemotherapy cycles until disease progression, unacceptable toxicity, or completion of 6 cycles; however, subjects randomized to the custirsen arm also receive weekly doses of custirsen starting at Day 1 of each of the 21-day chemotherapy cycles until disease progression, unacceptable toxicity, or completion of all 6 cycles.
This is a randomized, open-label, sponsor-blinded multinational trial. Treatment consists of paclitaxel/carboplatin/custirsen vs. paclitaxel/carboplatin, which compose the two arms of the study.
After a screening period of up to 28 days, subjects are randomly assigned with equal probability to the two arms. Stratified randomization is used in order to minimize between-arm imbalance over four stratification factors: Gender, Eastern Cooperative Oncology Group (ECOG) performance status (0 vs. 1), Smoking status (former/current smoker vs. never-smoker) and Geographical Region (North America, Europe and Southeast Asia).
Subjects randomized to the custirsen arm have a 5 to 9 day loading dose period prior to Day 1 of Cycle 1. […] Subjects who are removed from study treatment for any reason other than disease progression or death are followed for documented disease progression. Once disease progression is documented, subjects enter a survival follow-up phase during which data is collected regarding further cancer treatment and their survival status.
Tumor response to study treatment and disease progression is based on the criteria proposed by the Response Evaluation Criteria in Solid Tumors (RECIST) 1.1 guidelines. All subjects undergo CT or MRI scans of the chest and upper abdomen, as well as any other areas clinically indicated, at screening, then every 6 weeks, starting at week 8 for the first 26 weeks (week 8, 14, 20 and 26) and then every 12 weeks after the week 26 scan until disease progression. These time points are kept within a window of +one week, regardless of the treatment schedule. The week 26 scan is performed as scheduled, regardless of whether the patient is still in the treatment period (i.e. due to treatment delays) or has already completed the end of treatment visit. Once a patient is discontinued from study treatment for documented disease progression, scanning is no longer required. Assessment of these scans is carried out in a blinded fashion, by a Central Imaging Lab.
Adverse events are recorded at each visit during the study and 28 days after the last dose of study treatment. Medical history is assessed at screening and an electrocardiogram is performed. Physical examination, assessment of the ECOG performance status, vital signs and laboratory evaluations are conducted at screening and throughout the study. Adverse events are recorded from when a subject is signed the Informed Consent Form and throughout the study, until the end of the treatment visit (28 days following last dose). They are reviewed and updated at each subsequent visit and during any phone contact with the subject.
The general health status, as reported by the subjects is assessed by the EuroQoL (EQ-5D) and FACT-L questionnaires. Medical resource utilization is also compared between the treatment arms. The EQ-5D is a standardized instrument for use as a measure of health outcome. Applicable to a wide range of health conditions and treatments, it provides a simple descriptive profile and a single index value for health status that can be used in the clinical and economic evaluation of health care as well as population health surveys. EQ-5D is designed for self-completion by subjects. In this study the instrument is self-administrated.
640 mg in 250 mL normal saline IV over 2 hours.
Carboplatin AUC 6.0 mg/ml/min IV over 30 minutes.
The primary outcome measure is overall survival (OS). […]

## CC(=O)O[C@@]12CO[C@@H]1C[C@H](O)[C@@]1(C)C(=O)[C@H](O)C3=C(C)[C@@H](OC(=O)[C@H](O)[C@@H](NC(=O)OC(C)(C)C)c4ccccc4)C[C@@](O)([C@@H](OC(=O)c4ccccc4)[C@H]21)C3(C)C [Docetaxel]
NSCLC
  median PFS: about 3 months
CYP3A4
  CYP3A4 substrate status: CYP3A4 substrate
[1]; 60 mg/m^2
  grade 4 neutropenia (<500 cells/mm^3), patients affected: 75%
[1]; 100 mg/m^2
  grade 4 neutropenia (<500 cells/mm^3), patients affected: 85%
[1]; 60-100 mg/m^2
  Neutropenia (<2,000 neutrophils/mm3), patients affected: virtually all patients
[1]; abnormal liver function, higher doses, or NSCLC with prior platinum-based chemotherapy, single agent 100 mg/m^2
  incidence of treatment-related mortality: increased
[1]; human, in vivo
  most common side effects: infections, neutropenia, anemia, febrile neutropenia, hypersensitivity, thrombocytopenia, neuropathy, dysgeusia, dyspnea, constipation, anorexia, nail disorders, fluid retention, asthenia, pain, nausea, diarrhea, vomiting, mucositis, alopecia, skin reactions and myalgia

## N.N.O=C([O-])C1(C(=O)[O-])CCC1.[Pt+2] [carboplatin, Carboplatin]
[2]
  major dose-limiting toxicity: Bone marrow suppression

## custirsen: anti-clusterin antisense oligonucleotide CAGCAGCAGAGTCTTCATCAT (Seq. ID No.: 1), phosphorothioate backbone, 2′-O-methoxyethyl at nucleotides 1-4 and 18-21, 5-methylcytosines at 1, 4, 19 (antisense e[5mC]*eA*eG*e[5mC]*dA*dG*dC*dA*dG*dA*dG*dT*dC*dT*dT*dC*dA*eT*e[5mC]*eA*eT; listed as Homo sapiens)
[3]
  apoptosis: facilitates apoptosis
  sensitization of cancer cells to chemotherapy: sensitizes
Stage IIIB or IV NSCLC; low baseline clusterin (71 μg/mL cutpoint) and low levels during therapy (33 μg/mL average or 30 μg/mL minimum cutpoint)
  probability of extended survival by baseline and on-treatment clusterin: greatest probability of extended survival
Stage IIIB or IV NSCLC; all subjects with baseline clusterin level, clusterin >71 μg/mL (N=26)
  median survival time: 10.2 months
Stage IIIB or IV NSCLC; all subjects with baseline clusterin level, clusterin ≦71 μg/mL (N=45)
  median survival time: 18.8 months
Stage IIIB or IV NSCLC; early discontinuers removed, baseline clusterin >71 μg/mL (N=20)
  median survival time: 12.2 months
Stage IIIB or IV NSCLC; early discontinuers removed, baseline clusterin ≦71 μg/mL (N=35)
  median survival time: 28.7 months
[4]
  grade 1-2 constitutional symptoms (e.g., fever and chills), subjects affected: 50-60%
clusterin
  expression of clusterin: potently reduces the expression of clusterin
[5]; Arm A (custirsen+docetaxel) compared to Arm B (docetaxel)
  overall survival: prolonged survival
[5]; Arm A compared to Arm B
  progression free survival: increased
  proportion of subjects surviving free of progression for at least 14 weeks: statistically significant higher proportion
  quality of life: improves
  symptoms of NSCLC (chest pain, pleural effusions, pulmonary edema, dyspnea, hemoptysis): occasionally improve
[5]; custirsen 640 mg IV + docetaxel 75 mg/m^2 (Arm A)
  safety and tolerability: safe and well tolerated
[6]; Arm A (custirsen+paclitaxel/carboplatin) compared to Arm B (paclitaxel/carboplatin)
  overall survival: prolonged survival
[6]; Arm A compared to Arm B
  progression free survival: increased
  proportion of subjects surviving free of progression for at least 14 weeks: statistically significant higher proportion
  quality of life: improves
  symptoms of NSCLC (chest pain, pleural effusions, pulmonary edema, dyspnea, hemoptysis): occasionally improve
[6]; Arm A patients, baseline clusterin below 71 μg/mL versus above 71 μg/mL
  survival by baseline serum clusterin: tend to survive longer
[6]; custirsen 640 mg IV + paclitaxel/carboplatin (Arm A)
  safety and tolerability: safe and well tolerated
